Test results taken from paper PMC11685355, “Solid lipid nanoparticles for increased oral bioavailability of acalabrutinib in chronic lymphocytic leukaemia” (Discover Nano, 2024).
≈ marks a conversion by molar mass, not a printed value. Like-named read-outs stand apart in the source and are kept apart here.

Legend:
[1] = Solubility of ACP in surfactant solutions; format: physicochemical; conditions: aqueous with cosolvent or surfactant or cyclodextrin
Protocol: Surfactants are primarily chosen on the basis of two criteria: firstly, the affinity of ACP towards the aqueous solution in the presence of the surfactant; and secondly, their capacity to form a stable emulsion when the solid lipid is combined with the aqueous phase. […] Further, on the basis of the solubility of ACP in various surfactants, separate placebo batches of SLNs were prepared using the selected surfactant(s), in order to assess their ability to stabilize the SLNs by evaluating the particle size via dynamic light scattering.

[2] = Solubility of ACP in molten solid lipids; format: physicochemical
Protocol: The solid lipids were screened on the basis of biocompatibility and visual evaluation of the solubility of ACP in the lipids. Solid lipids such as GB (Compritol® 888 ATO), glyceryl di-stearate (Precirol ATO 5), glyceryl trimyristate (Dynasan 114), stearic acid, SP (Kolliwax® S) and cetyl palmitate were selected for solubility studies, as they were reported to be biocompatible. In the solubility studies, approximately 200 mg of each lipid was weighed separately and melted by heating to 5–10 °C above its corresponding melting point using a magnetic stirrer equipped with a temperature controlling program. ACP was added in small amounts to each lipid (in molten state), incrementally, up to a maximum of 100 mg under continuous stirring (150–200 rpm) while maintaining the temperature (5–10 °C above its corresponding melting point) until some amount of ACP was present in undissolved / powder form in the lipid. Further, the lipids in which the drug has similar solubility, the lipid solutions (ACP dissolved in lipid) were maintained at the same temperature for 60 min to observed for any precipitation of the drug.

[3] = In vitro dissolution studies, USP type II apparatus; format: physicochemical; conditions: pH 6.8, 0.5% w/v SDS, within 2 h
Protocol: Dissolution studies were performed using USP type II dissolution apparatus under conditions simulating the fluids in different parts of the gastrointestinal tract (200 mL of pH 1.2 ± 0.02; 4.5 ± 0.02 buffer; and 900 mL of pH 6.8 ± 0.02 buffer) and blood/plasma (500 mL of pH 7.4 ± 0.02 buffer). […] The temperature was maintained at 37 ± 2 °C with a constant stirring rate of 75 rpm. At predetermined time intervals, 1000 μL samples were withdrawn from the dissolution media via a syringe and replenished with the same volume of fresh media (to retain the sink condition). The samples were immediately centrifuged at 15,373 × g in an ultracentrifuge. The supernatant was collected, diluted with mobile phase (methanol with 10 mM (pH 3.5) ammonium acetate buffer at a ratio of 52:48), and analysed via an HPLC–UV-based analytical method (mentioned in Sect. 3.2). The dissolution data obtained were contoured into different mathematical models (zero order; first order; and Higuchi square root kinetics) to determine the kinetics of drug release. The best fit model was analysed on the basis of the regression coefficient.

[4] = Saturation solubility of ACP in buffers with 0.5% w/v SDS; format: physicochemical; conditions: buffer systems with 0.5% w/v SDS; pH 4.5; 6.8; and 7.4 in the presence of 0.5% w/v SDS
Source text: The inherent hydrophobicity of ACP results in a solubility profile that is dependent on pH. […] It is very important to maintain sink condition during the in vitro dissolution study of any drug product. To maintain sink condition in the in vitro dissolution studies of hydrophobic drugs, various strategies can be employed, including, addition of surfactant; maintaining large volumes of dissolution media; addition of co-solvents; and use of a different dissolution apparatus like a flow through cell etc.. Of all the above strategies, addition of surfactants (either ionic or non-ionic) is the most commonly employed strategy. SDS, an anionic surfactant, is used to improve the wettability and saturation solubility of hydrophobic drugs in aqueous media. Researchers have used SDS in the range of 0.2 to 20% w/v to maintain the sink condition in the in vitro dissolution studies of formulations containing hydrophobic molecules. Thus, in order to achieve a sink condition, 0.5% w/v SDS was added in buffer systems having a pH of 4.5 and higher. […] Based on the above criteria, we have determined the minimum volume of pH 4.5, pH 6.8 and pH 7.4 (containing 0.5% w/v SDS) required to dissolve the entire drug dose administered in the formulation to be at least 130 mL.

[5] = cited from earlier work
[6] = cited from earlier work; remark: listed apart in the source
[7] = design: method as in doi:10.1002/sscp.202400110; conditions: Wistar rats; cited from earlier work

CC#CC(=O)N1CCC[C@H]1c1nc(-c2ccc(C(=O)Nc3ccccn3)cc2)c2c(N)nccn12 [ACP, Acalabrutinib] gave a solubility ([1]; aqueous surfactant solution (Gelucire 44/14), Gelucire 44/14 0.15 % w/v, read-out: ACP solubility) of 1.36 µg/mL (≈ 2.92 µM), a solubility ([1]; aqueous surfactant solution (Gelucire 44/14), Gelucire 44/14 2 % w/v, read-out: ACP solubility) of 2.27 µg/mL (≈ 4.88 µM) and a solubility ([1]; aqueous surfactant solution (Gelucire 48/16), Gelucire 48/16 0.15 % w/v, read-out: ACP solubility) of 1.18 µg/mL (≈ 2.54 µM). For the same compound, the solubility ([1]; aqueous surfactant solution (Gelucire 48/16), Gelucire 48/16 2 % w/v, read-out: ACP solubility) was 2.96 µg/mL (≈ 6.36 µM), the solubility ([1]; aqueous surfactant solution (PVP K30), Polyvinyl Pyrrolidone (PVP)- K30 0.15 % w/v, read-out: ACP solubility) was 0.748 µg/mL (≈ 1.61 µM) and the solubility ([1]; aqueous surfactant solution (PVP K30), Polyvinyl Pyrrolidone (PVP)- K30 2 % w/v, read-out: ACP solubility) was 2.27 µg/mL (≈ 4.88 µM). For the same compound, the solubility ([1]; aqueous surfactant solution (Tween 80), 1% w/v solution of T80, read-out: solubility of ACP) was under 0.1 µg/mL, the solubility ([1]; aqueous surfactant solution (Tween 80), Tween 80 (T80) 0.15 % w/v, read-out: ACP solubility) was 0.0523 µg/mL (≈ 0.112 µM) and the solubility ([1]; aqueous surfactant solution (Tween 80), Tween 80 (T80) 2 % w/v, read-out: ACP solubility) was 0.194 µg/mL (≈ 0.417 µM). For the same compound, the solubility ([1]; aqueous surfactant solution (poloxamer 188), 1% w/v solution of P188, read-out: solubility of ACP) was under 0.1 µg/mL, the solubility ([1]; aqueous surfactant solution (poloxamer 188), Poloxamer 188 (P188) 0.15 % w/v, read-out: ACP solubility) was 0.0075 µg/mL (≈ 0.0161 µM) and the solubility ([1]; aqueous surfactant solution (poloxamer 188), Poloxamer 188 (P188) 2 % w/v, read-out: ACP solubility) was 0.0202 µg/mL (≈ 0.0434 µM). The solubility ([1]; aqueous surfactant solution (poloxamer 407), Poloxamer 407 (P407) 0.15 % w/v, read-out: ACP solubility) was 0.209 µg/mL (≈ 0.45 µM), the solubility ([1]; aqueous surfactant solution (poloxamer 407), Poloxamer 407 (P407) 2 % w/v, read-out: ACP solubility) was 1.74 µg/mL (≈ 3.74 µM) and the solubility ([1]; aqueous surfactant solution (polyvinyl alcohol), Polyvinyl Alcohol (PVA) 0.15 % w/v, read-out: ACP solubility) was 0.0137 µg/mL (≈ 0.0294 µM). The solubility ([1]; aqueous surfactant solution (polyvinyl alcohol), Polyvinyl Alcohol (PVA) 2 % w/v, read-out: ACP solubility) was 0.109 µg/mL (≈ 0.234 µM), the “solubility of ACP in lipid” value ([2]; in 200 mg of GB (glyceryl di-behenate)) was ~ 40 mg and the “solubility of ACP in lipid” value ([2]; in 200 mg of SP (stearyl palmitate)) was over 80 mg. The ACP dissolved [3] was “more than 80%”, the solubility [4] was at least 770 µg/mL and the “solubility of ACP” value ([5]; 0.01 N HCl (pH = 2)) was 3730 µg/mL. For the same compound, the “solubility of ACP” value ([5]; 0.1 N HCl (pH = 1)) was 29200 µg/mL, the “solubility of ACP” value ([5]; acetate or citrate buffer (pH = 4.5)) was 159 µg/mL and the “maximum basic pKa” value [5] was 5.77. The “solubility above pH 6” value [5] was “practically insoluble”, the excreted in faeces [6] was 84% and the excreted in urine [6] was 12%. For the same compound, the “unchanged ACP, share of the total amount eliminated” value [6] was “less than 2%” and the absolute oral bioavailability [7] was 22.83% ± 5.015%.
